# Biological target: T1, Human autotaxin enzyme (Homo sapiens, UniProt Q13822)
# T1 construct: purchased R&D System
# Experiment: Evaluation of autotaxin inhibitor, Method C (Test Example 3): 18:0 Lyso PC, choline assay, Resorufin fluorescence
# Type: biochemical
# Details: Assay Method C (Test Example 3), human autotaxin, 18:0 Lyso PC substrate; read-out: Inhibitory Activity (autotaxin enzyme inhibitory activity, IC50 class)
# Protocol: (Method C) Evaluation of Autotaxin Inhibitor
# Solution B containing 100 mM Tris-HCl buffer (pH7.5), 150 mM NaCl, 5 mM MgCl2 and 0.05% Triton X-100 was prepared. Human autotaxin enzyme (purchased from R&D System) was diluted with Solution B, and 2.5 μL of which was added to a solution of test compound in DMSO. Furthermore, 2.5 μl of 200 μM 18:0 Lyso PC (purchased from Avanti Polar Lipids) in Solution B was added and allowed to react at room temperature for 2 hours. After completion of the reaction, 15 μL of the coline assay reagent (100 mM Tris-HCl buffer (pH7.5), 5 mM MgCl2, 77 μg/mL choline oxidase, 10 μg/mL peroxidase, 25 μM 10-acetyl-3,7-dihydroxyphenoxazine and excess autotaxin inhibitor) was added and allowed to react at room temperature for 20 minutes. The fluorescent dye Resorufin, which was produced by the reaction, was detected. The fluorescence was detected using ViewLux (PerkinElmer, Inc.) with an excitation wavelength of 531 nm and a fluorescence wavelength of 598 nm.
# The percent inhibition of the test compound was calculated by assuming the sample with no test compound as 0% inhibition and the sample with no enzyme as 100% inhibition, and the percent inhibitions at different concentrations of the test compound were plotted to obtain a concentration-dependent curve.
row,SMILES,IC50
1,"CCCCCn1c(-c2ccc(C(=O)NCCN)cc2)cc(=O)n2cc(-c3ccc(Cl)cc3)nc12 [Compound 364, N-(2-aminoethyl)-4-(2-(4-chlorophenyl)-5-oxo-8-pentyl-5,8-dihydroimidazo[1,2-a]pyrimidin-7-yl)benzamide]",10 to 100 nM
2,CCCCCn1c(N2CCN(C(=O)OC(C)(C)C)C(C(=O)NCCC(=O)O)C2)cc(=O)n2cc(-c3ccc(Cl)cc3)nc12 (stereo not shown) [Compound 614],100 to 1000 nM
3,CCCCCn1c(N2CCC[C@H]2C(=O)NC(C)C(=O)OC)cc(=O)n2cc(-c3ccc(Cl)cc3)nc12 (stereo partly shown) [Compound 685],< 10 nM
4,CCCCCn1c(-c2ccc(F)nc2)cc(=O)n2cc(-c3ccc(Cl)cc3)nc12 [Compound 457],10 to 100 nM
5,CCCCCn1c(N2CCC[C@H](C(=O)OCC)C2)cc(=O)n2cc(-c3ccc(Cl)cc3)nc12 [Compound 671],100 to 1000 nM
6,CCCCCn1c(N2CCCC(c3ccccc3)C2)cc(=O)n2cc(-c3ccc(Cl)cc3)nc12 (stereo not shown) [Compound 305],> 1000 nM
7,CCCCCn1c(N2CCN(C(=O)OC(C)(C)C)C(C(=O)NCC(=O)O)C2)cc(=O)n2cc(-c3ccc(Cl)cc3)nc12 (stereo not shown) [Compound 627],100 to 1000 nM
8,CCCCCn1c(N2CCN(C(=O)OC(C)(C)C)C(C(=O)O)C2)cc(=O)n2cc(-c3ccc(Cl)cc3)nc12 (stereo not shown) [Compound 639],100 to 1000 nM
9,CCCCCn1c(-c2ccc(C(=O)NC(CO)CO)cc2)cc(=O)n2cc(-c3ccc(Cl)cc3)nc12 [Compound 482],< 10 nM
10,CCCCCn1c(N2CCC[C@H]2C(=O)N[C@H](C(=O)O)C(C)(C)C)cc(=O)n2cc(-c3ccc(Cl)cc3)nc12 [Compound 722],< 10 nM
11,CCCCCn1c(N2CCN(S(=O)(=O)N3CCOCC3)CC2)cc(=O)n2cc(-c3ccc(Cl)cc3)nc12 [Compound 296],100 to 1000 nM
12,CCCCCn1c(-c2ccc(C(=O)NCCC)cc2)cc(=O)n2cc(-c3ccc(Cl)cc3)nc12 [Compound 478],10 to 100 nM
13,Cn1c(N2CCC[C@H]2C(=O)N[C@@H](Cc2ccccc2)C(=O)O)cc(=O)n2cc(-c3ccc(Cl)cc3)nc12 [Compound 767],100 to 1000 nM
14,CCCCCn1c(-c2ccc(C(=O)NCCN3CC4(COC4)C3)cc2)cc(=O)n2cc(-c3ccc(Cl)cc3)nc12 [Compound 365],10 to 100 nM
15,CCCCCn1c(N2CCNC[C@H]2C(=O)NCC(=O)O)cc(=O)n2cc(-c3ccc(Cl)cc3)nc12 [Compound 667],10 to 100 nM
16,Cc1cc(=O)n2cc(-c3ccc(Cl)cc3)nc2n1CCCCCC#N [Compound 98],10 to 100 nM
17,CCCCCn1c(N2CCC[C@H]2C(=O)NCC2CCN(C)C2)cc(=O)n2cc(-c3ccc(Cl)cc3)nc12 (stereo partly shown) [Compound 650],> 1000 nM
18,CCCCCn1c(N2CCN(C(=O)c3ccc([N+](=O)[O-])cc3)CC2)cc(=O)n2cc(-c3ccc(Cl)cc3)nc12 [Compound 292],100 to 1000 nM
19,CCCCCn1c(N2CCC[C@H]2C(=O)NCCCN(C)C(=O)OC(C)(C)C)cc(=O)n2cc(-c3ccc(Cl)cc3)nc12 [Compound 655],100 to 1000 nM
20,CCCCCn1c(-c2ccc(C(=O)N3CCCC3)cc2)cc(=O)n2cc(-c3ccc(Cl)cc3)nc12 [Compound 406],100 to 1000 nM
21,CCCCCn1c(N2CCC[C@H]2CC(=O)NCCC(=O)O)cc(=O)n2cc(-c3ccc(Cl)cc3)nc12 [Compound 615],< 10 nM
22,C[C@H](NC(=O)[C@@H]1CCCN1c1cc(=O)n2cc(-c3ccc(Cl)cc3)nc2n1Cc1ccccc1)C(=O)O [Compound 748],< 10 nM
23,Cn1c(N2C[C@H](O)C[C@H]2C(=O)N[C@H](C(=O)O)C(C)(C)C)cc(=O)n2cc(-c3ccc(Cl)cc3)nc12 [Compound 774],10 to 100 nM
24,CCCCCn1c(-c2ccc(C(=O)NC3CN4CCC3CC4)cc2)cc(=O)n2cc(-c3ccc(Cl)cc3)nc12 (stereo not shown) [Compound 510],< 10 nM

# Next, values leading:
row,IC50,SMILES
1,10 to 100 nM,CCCCCn1c(-c2ccc(NS(=O)(=O)N(C)C)cc2)cc(=O)n2cc(-c3ccc(Cl)cc3)nc12 [Compound 438]
2,> 1000 nM,"O=c1cc(Cl)[nH]c2nc([C@H]3CC[C@H](C(F)(F)F)CC3)cn12 [Compound 135, 7-chloro-2-((1r,4r)-4-(trifluoromethyl)cyclohexyl)imidazo[1,2-a]pyrimidin-5(8H)-one]"
3,10 to 100 nM,CCCCCn1c(N2CCCC2CC(C)C)cc(=O)n2cc(-c3ccc(Cl)cc3)nc12 (stereo not shown) [Compound 308]
4,10 to 100 nM,CCCCCn1c(-c2ccc(C(=O)NCCN(C)C)cc2)cc(=O)n2cc(-c3ccc(Cl)cc3)nc12 [Compound 413]
5,100 to 1000 nM,CCCCCn1c(N2CCNC[C@@H]2C(=O)NCCC(=O)O)cc(=O)n2cc(-c3ccc(Cl)cc3)nc12 [Compound 663]
6,< 10 nM,CCCCCn1c(N2CCC[C@H]2C(=O)N[C@H](C(=O)O)C(C)C)cc(=O)n2cc(-c3ccc(Cl)cc3)nc12 [Compound 723]
7,10 to 100 nM,CCCCCn1c(N2CCNC(C(=O)NCC(=O)O)C2)cc(=O)n2cc(-c3ccc(Cl)cc3)nc12 (stereo not shown) [Compound 665]
8,< 10 nM,CCCCCn1c(-c2cnc(C(=O)NCCC(=O)O)nc2)cc(=O)n2cc(-c3ccc(Cl)cc3)nc12 [Compound 536]
9,10 to 100 nM,CCCCCn1c(O[C@H]2CCN(CCC(=O)OC(C)(C)C)C2)cc(=O)n2cc(-c3ccc(Cl)cc3)nc12 [Compound 578]
10,10 to 100 nM,CCCCCn1c(-c2ccc(C(=O)NCCC#N)cc2)cc(=O)n2cc(-c3ccc(Cl)cc3)nc12 [Compound 465]
11,< 10 nM,CCCCCn1c(OC2CN(CC(=O)O)C2)cc(=O)n2cc(-c3ccc(Cl)cc3)nc12 [Compound 577]
12,100 to 1000 nM,CCCCCn1c(N2CCCC(CNC(=O)OC(C)(C)C)C2)cc(=O)n2cc(-c3ccc(Cl)cc3)nc12 (stereo not shown) [Compound 311]
13,10 to 100 nM,CCCCCn1c(N2CCC[C@H]2C(=O)NC(CO)C(=O)OC)cc(=O)n2cc(-c3ccc(Cl)cc3)nc12 (stereo partly shown) [Compound 686]
14,10 to 100 nM,CCCCCn1c(N(Cc2ccc(C(=O)OC)cc2)C(C)=O)cc(=O)n2cc(-c3ccc(Cl)cc3)nc12 [Compound 566]
15,100 to 1000 nM,CCCCCn1c(N2CCCC2Cc2ccccc2)cc(=O)n2cc(-c3ccc(Cl)cc3)nc12 (stereo not shown) [Compound 320]
16,100 to 1000 nM,CCCCCn1c(N2CCNC(=O)C2)cc(=O)n2cc(-c3ccc(Cl)cc3)nc12 [Compound 293]
17,100 to 1000 nM,CCCCCn1c(N2CCC(NC(C)=O)CC2)cc(=O)n2cc(-c3ccc(Cl)cc3)nc12 [Compound 294]
18,10 to 100 nM,CCCCCn1c(N2CCC[C@H]2C(=O)N[C@H](C)C(=O)OC)cc(=O)n2cc(-c3ccc(Cl)cc3)nc12 [Compound 692]
19,> 1000 nM,CCn1c(N2C[C@H](O)C[C@H]2C(=O)NCC(=O)O)cc(=O)n2cc(-c3ccc(Cl)cc3)nc12 [Compound 762]
20,100 to 1000 nM,CCCCCn1c(-c2ccccn2)cc(=O)n2cc(-c3ccc(Cl)cc3)nc12 [Compound 528]
21,100 to 1000 nM,CCCCCn1c(NCC2(CO)COC2)cc(=O)n2cc(-c3ccc(Cl)cc3)nc12 [Compound 714]
22,< 10 nM,CCCCCn1c(N2CCC[C@H]2C(=O)N[C@@H](CC(C)C)C(=O)O)cc(=O)n2cc(-c3ccc(Cl)cc3)nc12 [Compound 733]
23,10 to 100 nM,"CCCCCn1c(-c2ccc(C(=O)NCCNC(=O)OCc3ccccc3)cc2)cc(=O)n2cc(-c3ccc(Cl)cc3)nc12 [Compound 363, benzyl 2-(4-(2-(4-chlorophenyl)-5-oxo-8-pentyl-5,8-dihydroimidazo[1,2-a]pyrimidin-7-yl)benzamide)ethylcarbamate]"
24,100 to 1000 nM,CCCCCn1c(N2CCC[C@H]2C(=O)NCCN2CCOCC2)cc(=O)n2cc(-c3ccc(Cl)cc3)nc12 [Compound 644]
25,100 to 1000 nM,CCCCCn1c(N2CCC[C@H]2C(=O)NC2CCCNC2=O)cc(=O)n2cc(-c3ccc(Cl)cc3)nc12 (stereo partly shown) [Compound 710]

# Same assay, conditions: Assay Method C, human autotaxin, 18:0 Lyso PC substrate; read-out: Inhibitory Activity
row,SMILES,IC50
1,N#CC1CN(C(=O)Cc2cn(CCCC(F)(F)F)c3nc(-c4ccc(Cl)cc4)cn3c2=O)CCO1 (stereo not shown) [Compound 862],10 to 100 nM
2,O=C(Cc1cn(CCCC(F)(F)F)c2nc(-c3ccc(Cl)cc3)cn2c1=O)NC1COC1 [Compound 846],> 1000 nM
3,NC(=O)C1CCN(C(=O)Cc2cn(CCCC(F)(F)F)c3nc(-c4ccc(Cl)cc4)cn3c2=O)CC1 [Compound 837],> 1000 nM
4,Cn1cc(Cc2cccc(C(=O)O)c2)c(=O)n2cc(-c3ccc(Cl)cc3)nc12 [Compound 819],100 to 1000 nM
5,O=C(Cc1cn(CCCC(F)(F)F)c2nc(-c3ccc(Cl)cc3)cn2c1=O)N[C@H](CO)Cc1ccccc1 [Compound 866],> 1000 nM
6,CCCCCn1c(N2CCC[C@H]2C(=O)NC[C@H](O)C(F)(F)F)cc(=O)n2cc(-c3ccc(Cl)cc3)nc12 [Compound 792],100 to 1000 nM
7,O=C(O)c1cccc(Cc2cn(CC3CC3)c3nc(-c4ccc(Cl)cc4)cn3c2=O)c1 [Compound 823],10 to 100 nM

# The next lines start with the values.
row,IC50,SMILES
1,< 10 nM,N#CCCCCn1cc(Cc2cccc(C(=O)O)c2)c(=O)n2cc(-c3ccc(Cl)cc3)nc12 [Compound 824]
2,10 to 100 nM,CCCCCn1c(N2CCC[C@H]2C(=O)Nc2nonc2OC)cc(=O)n2cc(-c3ccc(Cl)cc3)nc12 [Compound 794]
3,> 1000 nM,Cn1c(N2C[C@H](O)C[C@H]2C(=O)NC(C)(C)C(=O)O)cc(=O)n2cc(-c3ccc(Cl)cc3)nc12 [Compound 781]

# Same assay, conditions: Assay Method: Method C (Test Example 3); read-out: Inhibitory Activity (Enzyme Inhibitory Activity, IC50)
row,IC50,SMILES
1,> 1000 nM,CCC(=O)CCn1c(C)cc(=O)n2cc(-c3ccc(Cl)cc3)nc12 [Compound 48]
2,> 1000 nM,Cc1cc(=O)n2cc(-c3ccc(Cl)cc3)nc2n1CCCC(C)O (stereo not shown) [Compound 46]

# — US20160002247A1, “8-SUBSTITUTED IMIDAZOPYRIMIDINONE DERIVATIVE HAVING AUTOTAXIN INHIBITORY ACTIVITY” (THE UNIVERSITY OF TOKYO, priority 2013, published 2016)
